Experimental data from US8853230B2, “Inhibitors of JAK” (Portola Pharmaceuticals, Inc., priority 2009, dated 2014).

Key:
[1] = target: T1, JAK1 (Homo sapiens, UniProt P23458); assay: Z'-LYTE kinase assay, JAK1 tyrosine phosphorylation activity; assay type: biochemical; settings: read-out: JAK 1 IC50
T1 construct: 5 μl of catalytic domain recombinant Kinase enzyme+Tyr peptide substrate (Invitrogen, Calif.); purchased Invitrogen
In short: (§1)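 Compounds are serially diluted 1:10 in DMSO and tested in duplicate at 1% final DMSO. Each recombinant catalytic domain phosphorylates the Tyr6 FRET peptide with ATP for 1 h at room temperature, then a site-specific protease cleaves unphosphorylated peptide over 1 h before coumarin/fluorescein emission is read.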

[2] = target: T2, JAK2 (Homo sapiens, UniProt O60674); assay: Z'-LYTE kinase assay, JAK2 tyrosine phosphorylation activity; assay type: biochemical
T2 construct: 5 μl of catalytic domain recombinant Kinase enzyme+Tyr peptide substrate (Invitrogen, Calif.); purchased Invitrogen
T2 sequence (O60674 849-1124 limits assumed): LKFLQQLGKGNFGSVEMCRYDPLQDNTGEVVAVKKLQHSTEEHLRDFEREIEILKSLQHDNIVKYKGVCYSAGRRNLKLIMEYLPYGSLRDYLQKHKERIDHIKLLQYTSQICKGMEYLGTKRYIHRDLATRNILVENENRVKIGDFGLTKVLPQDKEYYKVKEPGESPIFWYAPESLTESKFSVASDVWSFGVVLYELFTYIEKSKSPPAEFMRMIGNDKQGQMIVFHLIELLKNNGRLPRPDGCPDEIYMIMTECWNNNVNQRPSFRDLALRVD
In short: as §1

[3] = target: T3, JAK3 (Homo sapiens, UniProt P52333); assay: Z'-LYTE kinase assay, JAK3 tyrosine phosphorylation activity; assay type: biochemical
T3 construct: 5 μl of catalytic domain recombinant Kinase enzyme+Tyr peptide substrate (Invitrogen, Calif.); purchased Invitrogen
T3 sequence (P52333 822-1111 limits assumed): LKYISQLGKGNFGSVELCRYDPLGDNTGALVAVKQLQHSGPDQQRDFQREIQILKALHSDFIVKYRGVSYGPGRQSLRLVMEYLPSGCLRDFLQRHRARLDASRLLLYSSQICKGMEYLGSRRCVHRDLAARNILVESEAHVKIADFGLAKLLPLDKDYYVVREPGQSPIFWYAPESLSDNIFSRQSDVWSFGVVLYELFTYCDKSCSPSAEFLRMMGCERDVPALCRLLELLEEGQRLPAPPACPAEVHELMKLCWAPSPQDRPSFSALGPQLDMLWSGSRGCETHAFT
In short: as §1

[4] = target: T4, TYK2 (Homo sapiens, UniProt P29597); assay: Z'-LYTE kinase assay, TYK2 tyrosine phosphorylation activity; assay type: biochemical
T4 construct: 5 μl of catalytic domain recombinant Kinase enzyme+Tyr peptide substrate (Invitrogen, Calif.); purchased Invitrogen
T4 sequence (P29597 897-1176 limits assumed): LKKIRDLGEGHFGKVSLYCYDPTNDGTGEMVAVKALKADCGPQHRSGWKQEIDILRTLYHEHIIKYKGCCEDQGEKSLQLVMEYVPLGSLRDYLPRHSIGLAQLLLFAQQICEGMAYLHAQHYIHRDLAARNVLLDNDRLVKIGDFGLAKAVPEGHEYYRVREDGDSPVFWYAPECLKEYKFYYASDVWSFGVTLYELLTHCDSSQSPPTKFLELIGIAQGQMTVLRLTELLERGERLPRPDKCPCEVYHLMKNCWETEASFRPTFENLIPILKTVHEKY
In short: as §1

[5] = test system: IL4-induced phospho STAT6 formation in Ramos B lymphocytes; assay: Inhibition of IL4-induced phospho STAT6 formation in Ramos B lymphocytes (flow cytometry); assay type: cell-based, human; settings: Homo sapiens; for inhibition at 0.2 µM: 200 nM compound, read-out: % Inhibition of IL-4 Induced STAT6 Phosphorylation 200 nM; for inhibition at 1 µM: 1 μM compound, read-out: % Inhibition of IL-4 Induced STAT6 Phosphorylation 1 μM
Description: Similar types of assays can be used to assess JAK inhibitory activity and to determine the degree of selectivity of the particular compound as compared to syk. One means of assaying for such inhibition is detection of the effect of the compounds of the present invention on the upregulation of downstream gene products. In the Ramos/IL4 assay, B-cells are stimulated with the cytokine Interleukin-4 (IL-4) leading to the activation of the JAK/Stat pathway through phosphorylation of the JAK family kinases, JAK1 and JAK3, which in turn phosphorylate and activate the transcription factor Stat-6. […] To study the effect of inhibitors (e.g., the 2,4-substituted pyrimindinediamine compounds described herein) on the JAK1 and JAK3, human Ramos B-cells are stimulated with human IL-4. 10′ post-stimulation, cells are subjected to intracellular flow cytometry to measure the extent of STAT-6 phosphorylation. 20 to 24 hours post-stimulation, cells are stained for upregulation of CD23 and analyzed using flow cytometry.
Inhibition of IL4-induced phospho STAT6 formation was measured by pre-incubating 0.5 million Ramos B lymphocytes (ATCC) with 5 μl compound or DMSO vehicle for 1 hour at 37° C./5% CO2. Cells were activated by addition of 1 ng/ml [f]IL4 (R & D Research Systems) for 10 min at 37° C./5% CO2 and then fixed by addition of 1.6% [f]PFA (Electron Microscopy Services). Following a PBS wash step and permaeabilization with 100% methanol, cells were incubated with ALEXA-conjugated anti-phosphoSTAT6 (Y641) antibody (BD 612600). The extent of cell associated-fluorescence was determined by flow cytomentry and data expressed as mean fluorescent intensity. The extent of inhibition of the IL4-induced signal was then calculated.

T1 sequence (P23458 875-1153 limits assumed): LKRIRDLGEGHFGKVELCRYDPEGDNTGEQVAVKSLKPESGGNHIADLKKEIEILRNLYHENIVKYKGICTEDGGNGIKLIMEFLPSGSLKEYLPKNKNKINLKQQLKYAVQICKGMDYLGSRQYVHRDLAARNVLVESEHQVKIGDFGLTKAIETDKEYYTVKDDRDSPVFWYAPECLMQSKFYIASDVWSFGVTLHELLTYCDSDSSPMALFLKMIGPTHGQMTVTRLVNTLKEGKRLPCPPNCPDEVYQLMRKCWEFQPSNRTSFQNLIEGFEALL

| SMILES | IC50 [1] [nM] | IC50 [2] [nM] | IC50 [3] [nM] | IC50 [4] [nM] | inhibition at 0.2 µM [5] [%] | inhibition at 1 µM [5] [%] |
| --- | --- | --- | --- | --- | --- | --- |
| NC(=O)c1cnc(Nc2ccc(Cl)c(NC(=O)N3CCCC3)c2)nc1NCc1cccc(F)c1 [Example 177, 2-(4-chloro-3-(pyrrolidine-1-carboxamido)phenylamino)-4-(3-fluorobenzylamino)pyrimidine-5-carboxamide] | > 1000 | 100 to 1000 | 1 to 10 | 100 to 1000 | 2.3 | 7.3 |
| NC(=O)c1cnc(Nc2cccc(NC(=O)N3CCCC3)c2)nc1NCc1cccc(F)c1 [Example 179, 4-(3-fluorobenzylamino)-2-(3-(pyrrolidine-1-carboxamido)phenylamino)pyrimidine-5-carboxamide] | 10 to 100 | 10 to 100 | 1 to 10 | 10 to 100 | 11.3 | 10.7 |
| CNC(=O)Nc1cccc(Nc2ncc(C(N)=O)c(NCc3ccccc3F)n2)c1 [Example 181, 4-(2-fluorobenzylamino)-2-(3-(3-methylureido)phenylamino)pyrimidine-5-carboxamide] | 10 to 100 | 10 to 100 | 1 to 10 | 1 to 10 | 23.7 | 38.7 |
| NC(=O)c1cnc(Nc2ccc(Cl)c(NC(=O)N3CCOCC3)c2)nc1NCc1ccccc1 [Example 182, N-(5-(4-(benzylamino)-5-carbamoylpyrimidin-2-ylamino)-2-chlorophenyl)morpholine-4-carboxamide] | 10 to 100 | 10 to 100 | 1 to 10 | 1 to 10 | 42.3 | 89 |
| CC(=O)Nc1cccc(Nc2ncc(C(N)=O)c(NCC3CCNCC3)n2)c1 [Example 190, 2-(3-acetamidophenylamino)-4-(piperidin-4-ylmethylamino)pyrimidine-5-carboxamide] | 10 to 100 | 10 to 100 | 1 to 10 | 10 to 100 | 17 | 39.3 |
| C[C@@H](Nc1nc(Nc2ccc(Cl)c(NC(N)=O)c2)ncc1C(N)=O)c1ccccc1 [Example 193, (R)-2-(4-chloro-3-ureidophenylamino)-4-(1-phenylethylamino)pyrimidine-5-carboxamide] | 100 to 1000 | 100 to 1000 | 1 to 10 | 100 to 1000 | 13.7 | 51.3 |
| NC(=O)Nc1cc(Nc2ncc(C(N)=O)c(NCc3ccccc3)n2)ccc1Cl [Example 194, 4-(benzylamino)-2-(4-chloro-3-ureidophenylamino)pyrimidine-5-carboxamide] | 100 to 1000 | 100 to 1000 | 1 to 10 | 10 to 100 | 10 | 22.7 |
| C[C@@H](Nc1nc(Nc2ccc(Cl)c(NC(=O)N(C)C)c2)ncc1C(N)=O)c1ccccc1 [Example 195, (R)-2-(4-chloro-3-(3,3-dimethylureido)phenylamino)-4-(1-phenylethylamino)pyrimidine-5-carboxamide] | 100 to 1000 | 10 to 100 | 1 to 10 | 10 to 100 | 3.3 | 27.3 |
| CN(C)C(=O)Nc1cc(Nc2ncc(C(N)=O)c(NCc3ccccc3)n2)ccc1Cl [Example 196, 4-(benzylamino)-2-(4-chloro-3-(3,3-dimethylureido)phenylamino)pyrimidine-5-carboxamide] | 100 to 1000 | 100 to 1000 | 1 to 10 | 10 to 100 | 8.3 | 65 |
| NC(=O)c1cnc(Nc2cccc(NC(=O)[C@H]3CCCO3)c2)nc1NCc1ccccc1 [Example 202, (R)-4-(benzylamino)-2-(3-(tetrahydrofuran-2-carboxamido)phenylamino)pyrimidine-5-carboxamide] | 10 to 100 | 10 to 100 | 1 to 10 | 1 to 10 | 23.5 | 48.5 |
| NC(=O)c1cnc(Nc2cccc(NC(=O)C3CCOC3)c2)nc1NCc1ccccc1 (stereo not drawn) [Example 203, 4-(benzylamino)-2-(3-(tetrahydrofuran-3-carboxamido)phenylamino)pyrimidine-5-carboxamide] | 10 to 100 | 10 to 100 | 1 to 10 | 1 to 10 | 80 | 106 |
| NC(=O)c1cnc(Nc2cccc(NC(=O)[C@@H]3CCCO3)c2)nc1NCc1cccc(F)c1 [Example 208, (S)-4-(3-fluorobenzylamino)-2-(3-(tetrahydrofuran-2-carboxamido)phenylamino)pyrimidine-5-carboxamide] | 10 to 100 | 10 to 100 | 1 to 10 | 10 to 100 | 22.7 | 67.7 |
| NC(=O)c1cnc(Nc2ccc(Cl)c(NC(=O)N3CCCCC3)c2)nc1NCc1ccccc1 [Example 209, 4-(benzylamino)-2-(4-chloro-3-(piperidine-1-carboxamido)phenylamino)pyrimidine-5-carboxamide] | > 1000 | > 1000 | 1 to 10 | 100 to 1000 | 0.3 | 1 |
| CN(C)[C@@H]1CCN(C(=O)Nc2cccc(Nc3ncc(C(N)=O)c(NCc4ccccc4)n3)c2)C1 [Example 210, (R)-4-(benzylamino)-2-(3-(3-(dimethylamino)pyrrolidine-1-carboxamido)phenylamino)pyrimidine-5-carboxamide] | 10 to 100 | 10 to 100 | 1 to 10 | 1 to 10 | 48 | 81.7 |
| CC(=O)Nc1cccc(Nc2cc(NCc3ccccc3)c(C(N)=O)cn2)c1 [Example 213, 6-(3-acetamidophenylamino)-4-(benzylamino)nicotinamide] | 100 to 1000 | 100 to 1000 | 10 to 100 | 100 to 1000 | 11.3 | 35.3 |
| CN1CCN(C(=O)Nc2cccc(Nc3ncc(C(N)=O)c(NCc4ccccc4)n3)c2)CC1 [Example 216, 4-(benzylamino)-2-(3-(4-methylpiperazine-1-carboxamido)phenylamino)pyrimidine-5-carboxamide] | 10 to 100 | 10 to 100 | < 1 | 1 to 10 | 57.3 | 91 |
| NC(=O)c1cnc(Nc2cccc(NC(=O)N3CCOCC3)c2)nc1NCc1ccccc1 [Example 217, N-(3-(4-(benzylamino)-5-carbamoylpyrimidin-2-ylamino)phenyl)morpholine-4-carboxamide] | 10 to 100 | 10 to 100 | 1 to 10 | 1 to 10 | 61.3 | 92 |
| NC(=O)c1cnc(Nc2cccc(NC(=O)N3CCCCC3)c2)nc1NCc1ccccc1 [Example 218, 4-(benzylamino)-2-(3-(piperidine-1-carboxamido)phenylamino)pyrimidine-5-carboxamide] | 10 to 100 | 10 to 100 | 1 to 10 | 1 to 10 | 28.7 | 76 |
